Key:
[1] = test system: Influenza strain A549 A/WSN/33 (H1N1); experiment: microbe, parasite or virus in culture; format: cell-based; conditions: Influenza A virus, A549, 20 h, A549 cells, influenza A/WSN/33 (H1N1), 20 hours incubation; read-out: A549_A(H1N1) EC50
[2] = in vitro; conditions: human, CC50, uninfected A549 cells, CellTiter-Glo

SMILES | EC50 [1] [µM] | CC50 [2] [µM]
O=C1c2c(O)c(=O)ccn2N2CN1C1(/C=C/COc3cccc4c3[C@H]2c2ccccc2SC4)CC1 (single isomer, unassigned) [Compound 107B, (17a′*S,*E)-12′-hydroxy-2′,17a′-dihydro-6′H-spiro[cyclopropane-1,9′-[3,4](epiprop[1]en[1]yl[3]ylidene)[10,17]methanobenzo[6,7]thiepino[4,5-c]pyrido[1,2-f][1]oxa[5,6,9]triazacyclotridecine]-11′,13′-dione] | 0.001 | > 0.1
O=C1c2c(O)c(=O)ccn2N2CN1C1(/C=C/COc3cc(F)c(F)c4c3[C@@H]2c2ccccc2SC4)CC1 (single isomer, unassigned) [Compound 108A, (17a′*R,*E)-24′,25′-difluoro-12′-hydroxy-2′,17a′-dihydro-6′H-spiro[cyclopropane-1,9′-[3,4](epiprop[1]en[1]yl[3]ylidene)[10,17]methanobenzo[6,7]thiepino[4,5-c]pyrido[1,2-f][1]oxa[5,6,9]triazacyclotridecine]-11′,13′-dione] | 0.84 | 22.6
O=C1c2c(O)c(=O)ccn2N2CN1C1(/C=C/COc3cc(F)c(F)c4c3[C@H]2c2ccccc2SC4)CC1 (single isomer, unassigned) [Compound 108B, (17a′*S,*E)-24′,25′-difluoro-12′-hydroxy-2′,17a′-dihydro-6′H-spiro[cyclopropane-1,9′-[3,4](epiprop[1]en[1]yl[3]ylidene)[10,17]methanobenzo[6,7]thiepino[4,5-c]pyrido[1,2-f][1]oxa[5,6,9]triazacyclotridecine]-11′,13′-dione] | 0.0002 | > 0.05
O=C1c2c(O)c(=O)ccn2N2CN1C1(/C=C\COc3cc(F)c(F)c4c3[C@@H]2c2ccccc2SC4)CC1 (single isomer, unassigned) [Compound 108C] | > 0.1 | > 0.2
O=C1c2c(O)c(=O)ccn2N2CN1C1(/C=C\COc3cc(F)c(F)c4c3[C@H]2c2ccccc2SC4)CC1 (single isomer, unassigned) [Compound 108D] | 0.0009 | > 0.2
COC[C@@H]1N2C/C=C\COc3ccccc3[C@@H](c3ccccc3)N1n1ccc(=O)c(O)c1C2=O (single isomer, unassigned) [Compound 109A, (18*R,19*R,*Z)-12-hydroxy-19-(methoxymethyl)-18-phenyl-6,9-dihydro-18H-10,17-methanobenzo[b]pyrido[1,2-f][1]oxa[5,6,9]triazacyclotridecine-11,13-dione] | 0.0066 | > 0.2
COC[C@H]1N2C/C=C\COc3ccccc3[C@H](c3ccccc3)N1n1ccc(=O)c(O)c1C2=O (single isomer, unassigned) [Compound 109B, (18*S,19*S,*Z)-12-hydroxy-19-(methoxymethyl)-18-phenyl-6,9-dihydro-18H-10,17-methanobenzo[b]pyrido[1,2-f][1]oxa[5,6,9]triazacyclotridecine-11,13-dione] | > 0.1 | > 0.2
Cc1cccc2c1OC/C=C\CN1CN([C@H]2c2ccccc2)n2ccc(=O)c(O)c2C1=O (single isomer, unassigned) [Compound 110A, (18*S,Z)-12-hydroxy-4-methyl-18-phenyl-6,9-dihydro-18H-10,17-methanobenzo[b]pyrido[1,2-f][1]oxa[5,6,9]triazacyclotridecine-11,13-dione] | 0.0064 | > 0.2
Cc1cccc2c1OC/C=C\CN1CN([C@@H]2c2ccccc2)n2ccc(=O)c(O)c2C1=O (single isomer, unassigned) [Compound 110B, (18*R,Z)-12-hydroxy-4-methyl-18-phenyl-6,9-dihydro-18H-10,17-methanobenzo[b]pyrido[1,2-f][1]oxa[5,6,9]triazacyclotridecine-11,13-dione] | > 0.1 | > 0.2

From patent US11312727B1, “Macrocyclic flu endonuclease inhibitors” (Janssen BioPharma, Inc., priority 2018, dated 2022)
